What was measured:
[1] = Residual rate of principal drug by HPLC after storage (Test Example 5); format: physicochemical
Description: The amorphous substances and the solid dispersions of 9-ethyl-6,6-dimethyl-8-(4-morpholin-4-yl-piperidin-1-yl)-11-oxo-6,11-dihydro-5H-benzo[b]carbazole-3-earbonitrile obtained in Examples 8 to 15 were tested under two conditions: i) they were stored in a thermostatic bath set at 40° C. for 3 months, and ii) they were stored in a thermostatic bath set at 40° C. and 75% RH for 3 months in an open state. Residual rates of the principal drugs were measured under following conditions of high performance liquid chromatography. It was concluded that the amorphous substances and the solid dispersions were chemically stable.
Detector: UV absorptiometer (measurement wavelength: 230 nm)
Column: stainless column of 4.6 mm in inner diameter and 15 cm in length, filled with 3.5 um of octadecylsilyl silica gel for liquid chromatography
Column temperature: fixed temperature about 35° C.
Mobile phase A: mixed solution of acetonitrile/trifluoroacetic acid (2000:1)
Mobile phase B: mixed solution of water/trifluoroacetic acid (2000:1)
Mobile phase supply: controlled concentration gradient with varying mixing ratio of mobile phases A and B as follows.

[2] = Intrinsic dissolution rate, USP chapter 1087 (Example 5); format: physicochemical
Description: A test of measuring intrinsic dissolution rate (according to USP chapter 1087 “APPARENT […] DISSOLUTION-DISSOLUTION TESTING PROCEDURES FOR ROTATING DISK AND STATIONARY DISK”) was performed on a composition containing the amorphous and crystalline forms (form I crystals) of 9-ethyl-6,6-dimethyl-8-(4-morpholin-4-yl-piperidin-1-yl)-11-oxo-6,11-dihydro-5H-benzo[b]carbazole-3-carbonitrilemonohydrochloride at certain ratios. It was concluded that the dissolution rate was increased when the content of the amorphous was about 15% or higher.

SMILES: CCc1cc2c(cc1N1CCC(N3CCOCC3)CC1)C(C)(C)c1[nH]c3cc(C#N)ccc3c1C2=O [Example 8, 9-ethyl-6,6-dimethyl-8-(4-morpholin-4-yl-piperidin-1-yl)-11-oxo-6,11-dihydro-5H-benzo[b]carbazole-3-carbonitrile]
- Retention rate after 3 months at 40° C. in 75 % RH ([1]; 40° C. and 75% RH, open state): 99.66
- Retention rate after 3 months at 40° C. ([1]; thermostatic bath 40° C.): 99.60

SMILES: CCc1cc2c(cc1N1CCC(N3CCOCC3)CC1)C(C)(C)c1[nH]c3cc(C#N)ccc3c1C2=O.Cl [9-ethyl-6,6-dimethyl-8-(4-morpholin-4-yl-piperidin-1-yl)-11-oxo-6,11-dihydro-5H-benzo[b]carbazole-3-carbonitrilemonohydrochloride]
- Intrinsic dissolution rate ([2]; Amount of amorphous 5.6%): 0.0065 mg/cm^2/min
- Intrinsic dissolution rate ([2]; Amount of amorphous 9.8%): 0.0065 mg/cm^2/min
- Intrinsic dissolution rate ([2]; Amount of amorphous 16.8%): 0.0112 mg/cm^2/min
- Intrinsic dissolution rate ([2]; Amount of amorphous (%): 0 < Lower than detection limit): 0.0078 mg/cm^2/min

Source: patent US10344014B2, “Amorphous form of tetracyclic compound” (Chugai Seiyaku Kabushiki Kaisha, priority 2014, dated 2019)
